Drawing on patent US20060024337A1, “Process for dissolving lipophilic compounds in aqueous solution with amphiphilic block copolymers, and cosmetic composition” (priority 2002, published 2006), this text covers solubility for two molecules.

≈ marks a conversion by molar mass, not a printed value.

Series [1] is described as follows: Dissolving DHEA in water with amphiphilic block copolymers (film hydration, centrifugation, HPLC assay of supernatant). The conditions noted are these: 25 °C, thermodynamic from solid, no polymer ("natural" solubility). Type of series: physicochemical.
Protocol: (§1) The measurement is performed by UV spectrometry or HPLC on an aqueous solution, prepared beforehand, of from 20 to 80° C. for 2 hours, followed by cooling to 25° C. The assay is performed 24 hours after this preparation on the supernatant obtained after centrifuging the suspension to remove all crystals, or on the pellet in the case of solubilization of oily molecules, the centrifugation resulting in creaming of the portion that is not encapsulated in the micelles.
(§2) The solubility gain is calculated relative to the “natural” solubility of the lipophilic compound in water.
Series [2] in a line: Dissolving Parsol 1789 in water with amphiphilic block copolymers (film hydration, centrifugation, HPLC assay of supernatant). Type of series: physicochemical. The note with it: 25 °C, thermodynamic from solid, no polymer ("natural" solubility).
Protocol: as §1
The supernatant, which should not contain any crystals that may be identified using an optical microscope in polarized light, is taken up and then assayed by HPLC.
as §2

With `C[C@]12CC[C@H](O)CC1=CC[C@@H]1[C@@H]2CC[C@]2(C)C(=O)CC[C@@H]12` [DHEA, dehydroepiandrosterone], the concentration in solution in series [1] (solubility at 24 h) came to 1 µg/mL (≈ 3.47 µM).
`COc1ccc(C(=O)CC(=O)c2ccc(C(C)(C)C)cc2)cc1` [Parsol 1789, 4-(tert-butyl)-4′-methoxydibenzoylmethane] yielded a solubility at 24 h in series [2] of 1 µg/mL (≈ 3.22 µM).
